Values after ≈ are worked out from the molar mass of the structure shown. Where a name gives a salt, the structure may show the parent alone.
Legend:
Streptococcus mutans = assay: test tube serial dilution test (minimal inhibitory concentration), Strep. mutans (Gram positive); format: cell-based; details: broth serial dilution; for MIC: Streptococcus mutans, read-out: Minimum Inhibitory Concentration, Strep. mutans
Text: (§1) It has been observed that the compounds generally described by the foregoing formula are particularly effective against gram positive organisms such as Staphylococcus aureus, Streptococcus sanguis and Streptococcus mutans; gram negative organisms such as Pseudomonas aeruginosa and Escherichia coli; and against fungi, such as Candida alibicans (yeast) and Trichophyton mentogrophytes and Aspergillus niger (mold). Compounds wherein A or B is a carboxyl radical in lieu of instant alkyl ester radical are substantially devoid of antibacterial activity.
(§2) The anti-microbial nature of the instant novel nontoxic compounds was shown by a standard test tube serial dilution test in which an appropriate number of test tubes of broth containing decreasing concentrations of the test agent was innoculated with the test organism (0.1% in ethyl alcohol). After a suitable period of incubation, the tubes were examined for the presence or absence of growth. The activity of the test agent was the lowest concentration which inhibited the growth of the organism and is expressed as the minimal inhibitory concentration in μ gm/ml. As shown in the following table of antimicrobial data, the dibiguanides of this invention are active against a variety of micro-organisms with maximum activity with a butyl and pentyl ester substituent on the phenyl radical.

Pseudomonas aeruginosa = assay: test tube serial dilution test (minimal inhibitory concentration), Ps. aeruginosa (Gram negative); format: cell-based; details: broth serial dilution; for MIC: Pseudomonas aeruginosa, read-out: Minimum Inhibitory Concentration, Ps. aeruginosa
Text: as §1, §2

Streptococcus sanguis = assay: test tube serial dilution test (minimal inhibitory concentration), Strep. sanguis (Gram positive); format: cell-based; details: broth serial dilution; for MIC: Streptococcus, read-out: Minimum Inhibitory Concentration, Strep. sanguis
Text: as §1, §2

[1] = tested on: Trichophyton mentogrophytes; assay: test tube serial dilution test (minimal inhibitory concentration), T. ment (mold); format: cell-based; details: broth serial dilution; for MIC: Trichophyton, read-out: Minimum Inhibitory Concentration, T. ment
Text: as §1, §2

Staphylococcus aureus = assay: test tube serial dilution test (minimal inhibitory concentration), S. aureus (Gram positive); format: cell-based; details: broth serial dilution; for MIC: Staphylococcus aureus, read-out: Minimum Inhibitory Concentration, S. aureus
Text: as §1, §2

Escherichia coli = assay: test tube serial dilution test (minimal inhibitory concentration), E. coli (Gram negative); format: cell-based; details: broth serial dilution; for MIC: Escherichia coli, read-out: Minimum Inhibitory Concentration, E. coli
Text: as §1, §2

C. albicans = assay: test tube serial dilution test (minimal inhibitory concentration), C. albicans (yeast); format: cell-based; details: broth serial dilution; for MIC: Candida albicans, read-out: Minimum Inhibitory Concentration, C. albicans
Text: as §1, §2

Aspergillus niger = assay: test tube serial dilution test (minimal inhibitory concentration), A. niger (mold); format: cell-based; details: broth serial dilution; for MIC: Aspergillus niger, read-out: Minimum Inhibitory Concentration, A. niger
Text: as §1, §2

[2] = on standing; cited from earlier work
[3] = literature; cited from earlier work
dental plaque = details: background statement; cited from earlier work

| SMILES | MIC (Streptococcus mutans) [µg/mL] | MIC (Pseudomonas aeruginosa) [µg/mL] | MIC (Streptococcus sanguis) [µg/mL] | MIC [1] [µg/mL] | MIC (Staphylococcus aureus) [µg/mL] | MIC (Escherichia coli) [µg/mL] | MIC (C. albicans) [µg/mL] | MIC (Aspergillus niger) [µg/mL] | Minimum Inhibitory Concentration, Strep. mutans (Streptococcus mutans) | Minimum Inhibitory Concentration, Ps. aeruginosa (Pseudomonas aeruginosa) [μgm/ml] | Minimum Inhibitory Concentration, Strep. sanguis (Streptococcus sanguis) | Minimum Inhibitory Concentration, T. ment [1] [μgm/ml] | Minimum Inhibitory Concentration, S. aureus (Staphylococcus aureus) | Minimum Inhibitory Concentration, E. coli (Escherichia coli) | Minimum Inhibitory Concentration, C. albicans (C. albicans) [μgm/ml] | Minimum Inhibitory Concentration, A. niger (Aspergillus niger) [μgm/ml] | hydrolysis of solutions to p-chloroaniline [2] | bacteriostatic activity in words [3] | antibacterial effect against dental plaque (dental plaque) |
| --- | --- | --- | --- | --- | --- | --- | --- | --- | --- | --- | --- | --- | --- | --- | --- | --- | --- | --- | --- |
| CCCCOC(=O)c1ccc(NC(=N)NC(=N)NCCCCCCNC(=N)NC(=N)Nc2ccc(C(=O)OCCCC)cc2)cc1 [A = C4 H9 OCO, B = H] |  |  |  |  |  |  |  |  | < .05 μgm/ml | 12.5 | .78 μgm/ml | 12.5 | 0.1 μgm/ml | 1.56 μgm/ml | 0.78 | 50 |  |  |  |
| CCCCCCOC(=O)c1ccc(NC(=N)NC(=N)NCCCCCCNC(=N)NC(=N)Nc2ccc(C(=O)OCCCCCC)cc2)cc1 [A = C6 H13 OCO, B = H] | 0.39 (≈ 0.563 µM) | 50 (≈ 72.2 µM) | 0.39 (≈ 0.563 µM) | 12.5 (≈ 18 µM) | 0.39 (≈ 0.563 µM) | 6.25 (≈ 9.02 µM) | 0.39 (≈ 0.563 µM) | 100 (≈ 144 µM) |  |  |  |  |  |  |  |  |  |  |  |
| CCCCCCCCOC(=O)c1ccc(NC(=N)NC(=N)NCCCCCCNC(=N)NC(=N)Nc2ccc(C(=O)OCCCCCCCC)cc2)cc1 [A = C8 H17 OCO, B = H, N,N"-bis(4-Octyloxycarbonylphenyl)-3,12-diimino-2,4,11,13-tetraazatetradecanediimidamide dihydrochloride] | 1.56 | 50 | 25 | 25 | 1.56 | 12.5 | 12.5 | 100 |  |  |  |  |  |  |  |  |  |  |  |
| COC(=O)c1ccc(NC(=N)NC(=N)NCCCCCCNC(=N)NC(=N)Nc2ccc(C(=O)OC)cc2)cc1 [A = CH3 OCO, B = H] |  |  |  |  |  |  |  |  | 1.56 μgm/ml | 50 | 50 μgm/ml | 12.5 | 6.25 μgm/ml | 25 μgm/ml | 25 | 100 |  |  |  |
| N=C(NCCCCCCNC(=N)NC(=N)Nc1ccc(C(=O)O)cc1)NC(=N)Nc1ccc(C(=O)O)cc1 [A = COOH, B = H, reference compound] | 25 (≈ 47.7 µM) | 50 (≈ 95.3 µM) | 100 (≈ 191 µM) | 100 (≈ 191 µM) | 10 (≈ 19.1 µM) | 100 (≈ 191 µM) | 100 (≈ 191 µM) | 100 (≈ 191 µM) |  |  |  |  |  |  |  |  |  |  |  |
| CC(C)OC(=O)c1cccc(NC(=N)NC(=N)NCCCCCCNC(=N)NC(=N)Nc2cccc(C(=O)OC(C)C)c2)c1 [A = H, B = (CH3)2 CHOCO, dihydrochloride] | 0.1 | 50 | 12.5 | 12.5 | 0.19 | 3.12 | 3.12 | 50 |  |  |  |  |  |  |  |  |  |  |  |
| COC(=O)c1cccc(NC(=N)NC(=N)NCCCCCCNC(=N)NC(=N)Nc2cccc(C(=O)OC)c2)c1 [A = H, B = CH3 OCO] | 1.56 (≈ 2.82 µM) | 50 (≈ 90.5 µM) | 100 (≈ 181 µM) | 12.5 (≈ 22.6 µM) | 3.12 (≈ 5.65 µM) | 12.5 (≈ 22.6 µM) | 25 (≈ 45.2 µM) | 100 (≈ 181 µM) |  |  |  |  |  |  |  |  |  |  |  |
| N=C(NCCCCCCNC(=N)NC(=N)Nc1ccc(Cl)cc1)NC(=N)Nc1ccc(Cl)cc1 [Chlorhexidine hydrochloride, reference compound] |  |  |  |  |  |  |  |  | < .05 μgm/ml | 12.5 | 6.25 μgm/ml | 1.56 | .19 μgm/ml | .78 μgm/ml | 3.12 | 25 |  |  |  |
| N=C(NCCCCCCNC(=N)NC(=N)Nc1ccc(Cl)cc1)NC(=N)Nc1ccc(Cl)cc1 [Chlorhexidine, reference compound] | < 0.05 |  |  |  | 0.19 (≈ 0.376 µM) |  | 1.56 (≈ 3.09 µM) | 25 (≈ 49.5 µM) |  |  | 3.12 μgm/ml |  |  | 0.19 μgm/ml |  |  | hydrolyze on standing to form additional amounts of p-chloroaniline | selected as the best | effective antibacterial agent against dental plaque |

The remaining compounds from weak to strong by MIC (Pseudomonas aeruginosa), led by results:

| MIC (Streptococcus mutans) [µg/mL] | MIC (Pseudomonas aeruginosa) [µg/mL] | MIC (Streptococcus sanguis) [µg/mL] | MIC [1] [µg/mL] | MIC (Staphylococcus aureus) [µg/mL] | MIC (Escherichia coli) [µg/mL] | MIC (C. albicans) [µg/mL] | MIC (Aspergillus niger) [µg/mL] | SMILES | Minimum Inhibitory Concentration, Strep. mutans (Streptococcus mutans) | Minimum Inhibitory Concentration, Ps. aeruginosa (Pseudomonas aeruginosa) [μgm/ml] | Minimum Inhibitory Concentration, Strep. sanguis (Streptococcus sanguis) | Minimum Inhibitory Concentration, T. ment [1] [μgm/ml] | Minimum Inhibitory Concentration, S. aureus (Staphylococcus aureus) | Minimum Inhibitory Concentration, E. coli (Escherichia coli) | Minimum Inhibitory Concentration, C. albicans (C. albicans) [μgm/ml] | Minimum Inhibitory Concentration, A. niger (Aspergillus niger) [μgm/ml] | hydrolysis of solutions to p-chloroaniline [2] | bacteriostatic activity in words [3] | antibacterial effect against dental plaque (dental plaque) |
| --- | --- | --- | --- | --- | --- | --- | --- | --- | --- | --- | --- | --- | --- | --- | --- | --- | --- | --- | --- |
| < 0.05 | 50 (≈ 75.2 µM) | 0.19 (≈ 0.286 µM) | 25 (≈ 37.6 µM) | 0.39 (≈ 0.587 µM) | 25 (≈ 37.6 µM) | 0.39 (≈ 0.587 µM) | 50 (≈ 75.2 µM) | CCCCCOC(=O)c1ccc(NC(=N)NC(=N)NCCCCCCNC(=N)NC(=N)Nc2ccc(C(=O)OCCCCC)cc2)cc1 [A = C5 H11 OCO, B = H] |  |  |  |  |  |  |  |  |  |  |  |
| 0.1 (≈ 0.164 µM) | 25 (≈ 41.1 µM) | 6.25 (≈ 10.3 µM) | 6.25 (≈ 10.3 µM) | 0.19 (≈ 0.312 µM) | 1.56 (≈ 2.56 µM) | 1.56 (≈ 2.56 µM) | 50 (≈ 82.1 µM) | CC(C)OC(=O)c1ccc(NC(=N)NC(=N)NCCCCCCNC(=N)NC(=N)Nc2ccc(C(=O)OC(C)C)cc2)cc1 [A = (CH3)2 CHOCO, B = H] |  |  |  |  |  |  |  |  |  |  |  |
| 0.39 | 25 | 25 | 12.5 | 0.78 | 1.56 | 12.5 | 100 | CCOC(=O)c1ccc(NC(=N)NC(=N)NCCCCCCNC(=N)NC(=N)Nc2ccc(C(=O)OCC)cc2)cc1 [A = C2 H5 OCO, B = H, N,N"-bis(4-ethoxycarbonylphenyl)-3,12-diimino-2,4,11,13-tetraazatetradecanediimidamide dihydrochloride] |  |  |  |  |  |  |  |  |  |  |  |
| < 0.05 | 25 (≈ 41.1 µM) | 3.12 (≈ 5.13 µM) | 3.12 (≈ 5.13 µM) | 0.19 (≈ 0.312 µM) | 1.56 (≈ 2.56 µM) | 3.12 (≈ 5.13 µM) | 100 (≈ 164 µM) | CCCOC(=O)c1ccc(NC(=N)NC(=N)NCCCCCCNC(=N)NC(=N)Nc2ccc(C(=O)OCCC)cc2)cc1 [A = C3 H7 OCO, B = H] |  |  |  |  |  |  |  |  |  |  |  |
| < 0.05 | 25 (≈ 39.3 µM) | 0.78 (≈ 1.22 µM) |  | 0.05 (≈ 0.0785 µM) | 3.12 (≈ 4.9 µM) | 0.78 (≈ 1.22 µM) | 100 (≈ 157 µM) | CCCCOC(=O)c1ccc(NC(=N)NC(=N)NCCCCCCNC(=N)NC(=N)Nc2ccc(C(=O)OCCCC)cc2)cc1 [drawing 6: A = C4 H9 OCO, B = H] |  |  |  | 0.19 |  |  |  |  |  |  |  |
|  | 25 (≈ 45.2 µM) | 50 (≈ 90.5 µM) | 25 (≈ 45.2 µM) |  | 50 (≈ 90.5 µM) | 25 (≈ 45.2 µM) | 100 (≈ 181 µM) | COC(=O)c1ccc(NC(=N)NC(=N)NCCCCCCNC(=N)NC(=N)Nc2ccc(C(=O)OC)cc2)cc1 [drawing 6: A = CH3 OCO, B = H] | 25 μgm/ml |  |  |  | 3.12 μgm/ml |  |  |  |  |  |  |
| < 0.05 | 12.5 (≈ 19.6 µM) | 1.56 (≈ 2.45 µM) | 6.25 (≈ 9.81 µM) | < 0.05 | 0.78 (≈ 1.22 µM) | 0.39 (≈ 0.612 µM) | 50 (≈ 78.5 µM) | CCCCOC(=O)c1cccc(NC(=N)NC(=N)NCCCCCCNC(=N)NC(=N)Nc2cccc(C(=O)OCCCC)c2)c1 [A = H, B = C4 H9 OCO] |  |  |  |  |  |  |  |  |  |  |  |
